# Experimental data as given in US11028127B2, “Peptides capable of reactivating p53 mutants” (Yeda Research and Development Co. Ltd., priority 2013, dated 2021).
# Assays:
# R249S p53 = biological target: T1, R249S p53 (Homo sapiens, UniProt P04637, R249S); experiment: TK-RGC-luc luciferase reporter assay in H1299 p53−/− cells; format: cell-based; settings: peptides added 24 hours after transfection, read at 48 hours
# T1 construct: expressed in transfected cells; host or cells: H1299 p53-/- cells, transient transfection
# Description: (§1) FIG. 12 is a bar graph illustrating the relative luciferase activity (cLuc/gLuc) as measured in the various tested samples. Transient transfection of H1299 p53^−/− cells was performed with plasmids expressing WT p53, R175H p53, R249S p53 or empty vector as control, together with TK-RGC-luc, where luciferase expression is under control of a tandem array of multiple p53-responsive elements. 24 hours after transfection, cells were treated with the test peptides. 48 hours after transfection, a sample of the culture medium was taken for bioluminescence measurements.
# (§2) The oligonucleotide (RGC-W) that has the sequence 5′-[…]-3′ (SEQ ID NO:362), and the oligonucleotide mutant RGC oligonucleotide (RGC-M) that has the sequence 5′-[…]-3′ (SEQ ID NO:363), are both derived from Kern et al. (Kern, S. E., et al., Identification of p53 as a sequence-specific DNA-binding protein. Science, 1991. 252(5013): p. 1708-11), and serve as a consensus binding sites for WT p53.
# (§3) These motifs were cloned into the KPN and Eco53IK sites in pCLuc Mini-TK 2 Vector (NEB, Cat No. N0324S ). The Luciferase construct was used to assess transcriptional activation of p53 in test cells.
# (§4) H1299 p53-null cells were cultured overnight and then transfected with the luciferase constructs using MaxFect Transfection Agent (Mediatech) according to the manufacturer's protocol. Prior to the transfection, cell medium was exchanged to OPTI-MEM.
# (§5) The cells were treated with different peptides 24 hours after transfection. After additional 24 hours, growth medium was collected to 96 black plates: 40 μl for Cluc assay, and 20 μl for Gluc assay. Assay was performed using Turner BioSystems Modulus Microplate. Value was calculated by Cluc/gluc/NT (non-treated cells).
# (§6) As additional screening strategy used to identify reactivating peptides was performed in vivo and is based on a reporter gene assay. It measures p53 transcriptional activity by quantifying the activity of a reporter gene, placed under the control of a promoter containing 17 repeats of a p53 consensus binding site (RGC). The luciferase assay is performed on living cells and therefore provides an indication on the effect of test peptides on Mut-p53 function in the context of intact cells.
# (§7) For the in vivo luciferase based screening, H1299 cells were used. Transient transfection of these p53^−/− cells was performed with vectors expressing WT p53, R175H p53, R249S p53 or empty vector as control (Suad, O., et al., Structural basis of restoring sequence-specific DNA binding and transactivation to mutant p53 by suppressor mutations. J. Mol. Biol., 2009. 385(1): p. 249-65). Cells were also co-transfected with TK-RGC-luc (CAT. No. NEB, N0324S). 24 hours after transfection, cells were treated with the test peptides. […]
# R175H p53 = biological target: T2, R175H p53 (Homo sapiens, UniProt P04637, R175H); experiment: as above; format: cell-based; settings: peptides added 24 hours after transfection, read at 48 hours
# T2 construct: a hot spot full length mutant p53 Mut-p53 R175H (R175H p53); expressed in transfected cells; host or cells: H1299 p53-/- cells, transient transfection
# Description: as §1, §2, §3, §4, §5, §6, §7
# Mut-p53 (R175H p53) = biological target: T3, Mut-p53 (R175H p53) (Homo sapiens, UniProt P04637, R175H); experiment: p53/DNA binding ELISA kit (R&D), binding to p53-RE DNA; format: biochemical; settings: H1299-R175H p53 cell extracts, vs background (NT)
# T3 construct: a hot spot full length mutant p53 Mut-p53 R175H (R175H p53); expressed in transfected cells; host or cells: H1299 (p53-null) cells stably overexpressing R175H p53; cell extract
# Description: A commercial p53/DNA binding kit (R&D) was used, according to manufacturer instructions. Briefly, 96 well plates were coated with anti-p53 antibody overnight. Cell extracts containing p53 were reacted with an oligonucleotide that contains a p53 consensus binding site, labeled with biotin, in the presence or absence (NT) of test peptides. WT p53 is expected to bind this DNA binding site as well as to the antibody coating the test wells of the plate. Excess p53 and oligos are washed away and streptavidin-HRP is used to quantify the amount of oligos in the well, which is proportional to the DNA bound by p53. TMB assay was performed to determine HRP levels (450 nm). The results are presented as relative absorbance (at 450 nm) (Y-Axis) of each tested sample. MCF7 and the H1299-Mut-p53 (ts) A135V cells serve as positive controls for WT p53.
# For these experiments, a commercial p53/DNA binding kit of “R&D” (Cat-DYC1355-5 Lot-1273366FA) was used, in accordance with manufacturer guide lines. Briefly, 96 well plates are coated with anti-p53 antibody overnight. Cell extracts containing p53 are reacted with an oligonucleotide that contains a p53 consensus binding site (provided in the kit), labeled with biotin, in the presence or absenc.
# e (NT) of test peptides. WT p53 is expected to bind this DNA binding site as well as to the antibody coating the test wells of the plate. Excess p53 and oligos were washed away and streptavidin-HRP was used to quantify the amount of oligos in the well, which is proportional to the DNA bound by p53. TMB assay was performed to determine HRP (ES001-1L-K) levels (450 nm).
# To measure the effect of the tested peptides on DNA binding of Mut-p53, a commercial ELISA kit, (R&D Systems DYC1355-5, Lot-1273366FA), was used as a high-throughput assay to quantify p53 activation. This kit uses a 96-well plate format. The kit was used according to manufacturer's instructions. Wells were coated with anti-p53 antibody overnight. Cell extracts containing p53 were reacted with a biotin labeled oligonucleotide containing a p53 consensus binding site (included in the kit). WT p53 is expected to bind this oligo as well as the antibody coating the wells. Excess p53 and oligo were washed away in wash buffer (0.05% Tween 20 in PBS, pH 7.2-7.4; R&D Systems, Catalog #WA126). Then, streptavidin-HRP (R&D Systems, Part 890803, provided in the kit) was added for 15-45 min to quantify the amount of oligo in the well, which is proportional to the DNA bound by p53. If the addition of a peptide to Mut-p53 extracts increases ELISA reading compared to background, this peptide is considered as functionally effective and may be selected for further analysis. […] As with the conformational screening, MCF7 and the H1299-Mut-p53 (ts) A135V cells served as positive controls for WT p53. Extracts were added to the wells coated with αp53-Ab, and after several washing steps, streptavidin-HRP was added for 1 hour, and then plates were washed again and TMB (substrate to HRP) assay was performed.
sequence,measurement,setting,value
YRRLLIGMMWRRRRRRRRRRR [pCAP-68],transcription from TK-RGC-luc in the presence of R249S p53,R249S p53,induce transcription from TK-RGC-luc
same,transcription from TK-RGC-luc in the presence of R175H p53,R175H p53,induce transcription from TK-RGC-luc
same,binding of H1299-R175H p53 extracts to p53-RE DNA,Mut-p53 (R175H p53),elevate the binding of H1299-R175H p53 extracts to p53-RE DNA
